From ChEMBL document CHEMBL2203064, “Inhibitors of the acetyltransferase domain of N-acetylglucosamine-1-phosphate-uridylyltransferase/glucosamine-1-phosphate-acetyltransferase (GlmU). Part 2: Optimization of physical properties leading to antibacterial aryl sulfonamides” (Bioorg Med Chem Lett, 2012)
In brackets after ≈: the same amount, converted by molar mass. Activity calls are given as the source filed them. The rule behind the calls is not given here.

How the values were obtained:
Haemophilus influenzae [1] = test: Antibacterial activity against acrB efflux-pump deficient mutant of Haemophilus influenzae; format: functional
[2] = Inhibition of Streptococcus pneumoniae GlmU
[3] = Inhibition of Escherichia coli GlmU
[4] = Inhibition of Haemophilus influenzae GlmU
physchem = details: buffer, pH 7.4
Description: Lipophilicity, log D of the compound at pH 7.4

Haemophilus influenzae [5] = test: Antibacterial activity against acrB efflux-pump deficient mutant of Haemophilus influenzae assessed as inhibition of lipid biosynthesis; format: functional, organism-based
Haemophilus influenzae [6] = test: Antibacterial activity against acrB efflux-pump deficient mutant of Haemophilus influenzae assessed as inhibition of cell-wall biosynthesis; format: functional, organism-based
Haemophilus influenzae [7] = test: Antibacterial activity against acrB efflux-pump deficient mutant of Haemophilus influenzae assessed as inhibition of radio-labeled biosynthetic precursor incorporation; format: functional, organism-based

Structure (SMILES) | MIC (Haemophilus influenzae [1]) [µg/mL] | IC50 [2] [nM] | IC50 [3] [nM] | IC50 [4] [nM] | logD (physchem) | inhibition (Haemophilus influenzae [5]) | inhibition (Haemophilus influenzae [6]) | inhibition (Haemophilus influenzae [7])
COc1cc(OC)c(S(=O)(=O)N2Cc3ccccc3Oc3ccccc32)cc1NC(=O)CCC(=O)O | 32 (≈ 62.4 µM) | 55000 | 30 | 80 |  |  |  | 
COc1cc(OC)c(S(=O)(=O)N2c3ccccc3CCC2C)cc1NC(=O)CCc1nn[nH]n1 (stereo unspecified) | > 64 | 24700 | 430 | 600 | -0.34 |  |  | 
COc1cc(OC)c(S(=O)(=O)N(c2ccccc2)c2ccc3ccccc3c2)cc1NC(=O)CCC(=O)O | 32 (≈ 59.9 µM) | 8400 | 40 | 830 |  |  |  | 
COc1cc(OC)c(S(=O)(=O)N2c3ccccc3Oc3ccccc32)cc1NC(=O)[C@@H]1C(C)[C@H]1C(=O)O (mixture of isomers) | 32 | 5300 | 30 | 10 | 0.06 |  |  | 
COc1cc(OC)c(S(=O)(=O)N2c3ccccc3Oc3ccccc32)cc1NC(=O)Cc1ccncc1 | 64 (≈ 124 µM) | 32000 | 60 | 30 |  |  |  | 
COc1cc(OC)c(S(=O)(=O)N(c2ccc(C)cc2)c2ccc(C)cc2)cc1NC(=O)CCC(=O)O | 32 (≈ 62.4 µM) | 48000 | 40 | 320 |  |  |  | 
COc1cc(OC)c(S(=O)(=O)N2c3ccccc3Oc3ccccc32)cc1NC(=O)/C=C/C(=O)O | 64 (≈ 129 µM) | 21500 | 10 | 20 | -0.71 |  |  | 
COc1cc(OC)c(S(=O)(=O)N2c3ccccc3CCC2C)cc1NC(=O)[C@@H]1C(C)[C@H]1C(=O)O (mixture of isomers) | 128 | 5900 | 400 | 510 | -0.39 |  |  | 
COc1cc(O)c(S(=O)(=O)N2c3ccccc3Oc3ccccc32)cc1NC(=O)[C@@H]1C(C)[C@H]1C(=O)O (relative stereo) | 32 (≈ 62.7 µM) | 30300 | 60 | 30 |  |  |  | 
COc1cc(O)c(S(=O)(=O)N2c3ccccc3CCC2C)cc1NC(=O)[C@@H]1C(C)[C@H]1C(=O)O (relative stereo) | 128 (≈ 270 µM) | 7840 | < 480 | 380 |  |  |  | 
COc1cc(OC)c(S(=O)(=O)N(c2ccccc2)c2ccccc2)cc1NC(=O)CCC(=O)O | > 64 | 25500 | 40 | 910 |  |  |  | 
COc1cc(OC)c(S(=O)(=O)N2c3ccccc3Oc3ccccc32)cc1NC(=O)CCC(=O)O | 32 (≈ 64.2 µM) | 14600 | 10 | 20 |  | Active | Active | Active
COc1cc(OC)c(S(=O)(=O)N(c2ccccc2)c2ccc(N)cc2)cc1NC(=O)CCC(=O)O | > 64 | 40200 | 20 | 400 |  |  |  | 
COc1cc(O)c(S(=O)(=O)N2c3ccccc3CCC2C)cc1NC(=O)CCC(=O)O (stereo unspecified) | 32 (≈ 71.3 µM) | 46600 | 50 | 280 | -0.27 | Active | Active | Active
COc1cc(OC)c(S(=O)(=O)N2c3ccccc3Sc3ccccc32)cc1NC(=O)CCC(=O)O | > 64 | 36900 | 90 | 370 | -0.31 |  |  | 
COc1cc(OC)c(S(=O)(=O)N2c3ccccc3Oc3ccccc32)cc1NC(=O)Cc1ccnc(F)c1 | > 128 | 9900 | 90 | 30 | 3.37 |  |  | 
COc1cc(OC)c(S(=O)(=O)N2c3ccccc3CCC2C)cc1NC(=O)Cc1ccnc(C#N)c1 (stereo unspecified) | > 128 | 10000 | 680 | 670 |  |  |  | 
COc1cc(OC)c(S(=O)(=O)N2c3ccccc3CCC2C)cc1NC(=O)Cc1ccnc(F)c1 (stereo unspecified) | > 128 | 9000 | 800 | 520 | 2.49 |  |  | 
